Values joined by “and” are separate entries in the source; they are usually repeats but may differ in a detail not shown here. Equal values may be shown once. Read-outs that look alike come from different tables or passages of the source.
Experiments:
Test in all cases: Chemosensitivity, 96 h continuous exposure, MTT assay
Assay type in all cases: cell-based, human
[1] = tested on: MiaPaCa2; details: for Selectivity index (ARPE19): IC50 ARPE-19 / IC50 MiaPaCa2; for Selectivity index (MCF10A): IC50 MCF10A / IC50 MiaPaCa2; for IC50 / Selectivity indices relative to ARPE-19, Ratio + anion:no anion / Selectivity indices relative to MCF10A, Ratio + anion:no anion: MiaPaCa2; for Relative potency (+ anion to no anion), Ratio + anion:no anion: ratio of IC50, MiaPaCa2; for Selectivity indices relative to ARPE-19, Ratio + anion:no anion: ratio of SI (ARPE-19); for Selectivity indices relative to MCF10A, Ratio + anion:no anion: ratio of SI (MCF 10A)
In short: (§1)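 IC50 is the concentration giving 50% growth reduction, derived from dose-response curves of MTT absorbance at 540 nm. Before dosing, lines were plated at 2 × 10^3 cells/well, GBM1 stem-like cells at 3 × 10^3/well, overnight at 37 °C; compound exposure lasted 96 h without interruption, vehicle 0.2% DMSO.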

[2] = tested on: BxPC3; details: for IC50 / Selectivity indices relative to ARPE-19, Ratio + anion:no anion / Selectivity indices relative to MCF10A, Ratio + anion:no anion: BXPC3; for Selectivity index (ARPE19): IC50 ARPE-19 / IC50 BXPC3; for Selectivity index (MCF10A): IC50 MCF10A / IC50 BXPC3; for Relative potency (+ anion to no anion), Ratio + anion:no anion: ratio of IC50, BXPC3; for Selectivity indices relative to ARPE-19, Ratio + anion:no anion: ratio of SI (ARPE-19); for Selectivity indices relative to MCF10A, Ratio + anion:no anion: ratio of SI (MCF 10A)
In short: as §1

[3] = tested on: H460; details: for Selectivity index (ARPE19): IC50 ARPE-19 / IC50 H460; for Selectivity index (MCF10A): IC50 MCF10A / IC50 H460; for Relative potency (+ anion to no anion), Ratio + anion:no anion: ratio of IC50, H460; for Selectivity indices relative to ARPE-19, Ratio + anion:no anion: ratio of SI (ARPE-19)
In short: (§2)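 Growth inhibition is measured by MTT after cells are dosed for 96 h without washout. The 50% growth-reduction concentration is then interpolated from the curves.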

[4] = tested on: ARPE-19 non-cancer cells; details: for Relative potency (+ anion to no anion), Ratio + anion:no anion: ratio of IC50, ARPE-19
In short: as §1

[5] = tested on: MCF10A non-cancer cells; details: for Relative potency (+ anion to no anion), Ratio + anion:no anion: ratio of IC50, MCF10A
In short: as §1

[6] = tested on: PSN1; details: for Selectivity index (ARPE19): IC50 ARPE-19 / IC50 PSN1; for Selectivity index (MCF10A): IC50 MCF10A / IC50 PSN1; for IC50 / Selectivity indices relative to ARPE-19, Ratio + anion:no anion / Selectivity indices relative to MCF10A, Ratio + anion:no anion: PSN1; for Relative potency (+ anion to no anion), Ratio + anion:no anion: ratio of IC50, PSN1; for Selectivity indices relative to ARPE-19, Ratio + anion:no anion: ratio of SI (ARPE-19); for Selectivity indices relative to MCF10A, Ratio + anion:no anion: ratio of SI (MCF 10A)
In short: as §2

[7] = tested on: HT-29; details: for Selectivity index (ARPE19): IC50 ARPE-19 / IC50 HT29; for Selectivity index (MCF10A): IC50 MCF10A / IC50 HT29; for Relative potency (+ anion to no anion), Ratio + anion:no anion: ratio of IC50, HT29; for Selectivity indices relative to ARPE-19, Ratio + anion:no anion: ratio of SI (ARPE-19); for Selectivity indices relative to MCF10A, Ratio + anion:no anion: ratio of SI (MCF 10A)
In short: as §1

[8] = mean of replicates, read-out: Mean IC50
[9] = single replicate, read-out: IC50 values for each replicate
[10] = H460, mean of replicates, read-out: Mean IC50
[11] = H460, read-out: Mean IC50 values
[12] = H460, single replicate, read-out: IC50 values for each replicate
[13] = ARPE-19, mean of replicates, read-out: Mean IC50
[14] = ARPE-19, single replicate, read-out: IC50 values for each replicate
[15] = ARPE-19 non-cancer, read-out: Mean IC50 values
[16] = MCF10A non-cancer, read-out: Mean IC50 values
[17] = MCF10A, mean of replicates, read-out: Mean IC50
[18] = MCF10A, single replicate, read-out: IC50 values for each replicate
[19] = HT29, mean of replicates, read-out: Mean IC50
[20] = HT29, read-out: Mean IC50 values
[21] = HT-29, single replicate, read-out: IC50 values for each replicate

`CC(=O)[O-].CC(=O)[O-].CC(=O)[O-].O=P([O-])([O-])[O-].[Zn+2].[Zn+2].[Zn+2].c1ccc(-c2csc(NCCN(CCNc3nc(-c4ccccn4)cs3)CCNc3nc(-c4ccccn4)cs3)n2)nc1.c1ccc(-c2csc(NCCN(CCNc3nc(-c4ccccn4)cs3)CCNc3nc(-c4ccccn4)cs3)n2)nc1` [[L2Zn3(PO4)]3+] was tested, and the “Selectivity index (ARPE19)” value [1] was 2.94, the “Selectivity index (MCF10A)” value [1] was 0.32 and the IC50 [1, 8] was 44.5 µM. The IC50 ([1]; read-out: Mean IC50 values) was 44.5 µM, the IC50 [1, 9] was 52.4 µM and 49.8 µM and 47.6 µM and 22 µM and 50.8 µM and the “Relative potency (+ anion to no anion), Ratio + anion:no anion” value (“Relative potency … Ratio + anion:no anion” below) [1] was 0.75. For the same compound, the “Selectivity indices relative to ARPE-19, Ratio + anion:no anion” value [1] was 1.106, the “Selectivity indices relative to MCF10A, Ratio + anion:no anion” value [1] was 0.118 and the IC50 [2, 8] was 728 nM. For the same compound, the IC50 ([2]; read-out: Mean IC50 values) was 728 nM, the IC50 [2, 9] was 812 nM and 698 nM and 618 nM and 766 nM and the “Selectivity index (ARPE19)” value [2] was 179.90. The “Selectivity index (MCF10A)” value [2] was 19.81, the “Relative potency … Ratio + anion:no anion” value [2] was 2.28 and the “Selectivity indices relative to ARPE-19, Ratio + anion:no anion” value [2] was 0.366. For the same compound, the “Selectivity indices relative to MCF10A, Ratio + anion:no anion” value [2] was 0.039, the IC50 [3, 10] was 249 nM and the IC50 [3, 11] was 249 nM. The IC50 [3, 12] was 241 nM and 263 nM and 265 nM and 226 nM, the “Selectivity index (ARPE19)” value [3] was 525.98 and the “Selectivity index (MCF10A)” value [3] was 57.92. For the same compound, the “Relative potency … Ratio + anion:no anion” value [3] was 0.69, the “Selectivity indices relative to ARPE-19, Ratio + anion:no anion” value ([3]; H460) was 1.204 and the “Selectivity indices relative to MCF10A, Ratio + anion:no anion” value ([3]; ratio of SI (MCF 10A), H460) was 0.129. The IC50 [4, 13] was 131 µM, the IC50 [4, 14] was 121 µM and 118 µM and 154 µM and the IC50 [4, 15] was 131 µM. The “Relative potency … Ratio + anion:no anion” value [4] was 0.83, the IC50 [5, 16] was 14.4 µM and the IC50 [5, 17] was 14.4 µM. For the same compound, the IC50 [5, 18] was 11.9 µM and 15 µM and 16.3 µM, the “Relative potency … Ratio + anion:no anion” value [5] was 0.09 and the “Selectivity index (ARPE19)” value [6] was 19.60. The “Selectivity index (MCF10A)” value [6] was 2.16, the IC50 [6, 8] was 6.68 µM and the IC50 ([6]; read-out: Mean IC50 values) was 6.68 µM. For the same compound, the IC50 [6, 9] was 6.73 µM and 6.48 µM and 6.84 µM, the “Relative potency … Ratio + anion:no anion” value [6] was 1.50 and the “Selectivity indices relative to ARPE-19, Ratio + anion:no anion” value [6] was 0.554. The “Selectivity indices relative to MCF10A, Ratio + anion:no anion” value [6] was 0.059, the IC50 [7, 19] was 214 nM and the IC50 [7, 20] was 214 nM. The IC50 [7, 21] was 91 nM and 254 nM and 236 nM and 228 nM and 262 nM, the “Selectivity index (ARPE19)” value [7] was 612.01 and the “Selectivity index (MCF10A)” value [7] was 67.40. For the same compound, the “Relative potency … Ratio + anion:no anion” value [7] was 1.27, the “Selectivity indices relative to ARPE-19, Ratio + anion:no anion” value ([7]; HT29) was 0.658 and the “Selectivity indices relative to MCF10A, Ratio + anion:no anion” value ([7]; HT29) was 0.070.
In the case of `O=P(O)(O)Oc1ccccc1.[Zn+2].[Zn+2].[Zn+2].c1ccc(-c2csc(NCCN(CCNc3nc(-c4ccccn4)cs3)CCNc3nc(-c4ccccn4)cs3)n2)nc1.c1ccc(-c2csc(NCCN(CCNc3nc(-c4ccccn4)cs3)CCNc3nc(-c4ccccn4)cs3)n2)nc1` [[L2Zn3(O3POPh)]4+], the “Selectivity index (ARPE19)” value [1] is reported as 4.94, the “Selectivity index (MCF10A)” value [1] is reported as 1.12 and the IC50 [1, 8] is reported as 46.6 µM. The IC50 ([1]; read-out: Mean IC50 values) was 46.6 µM, the IC50 [1, 9] was 45.4 µM and 47.8 µM and 46.8 µM and the “Relative potency … Ratio + anion:no anion” value [1] was 0.79. The “Selectivity indices relative to ARPE-19, Ratio + anion:no anion” value [1] was 1.858, the “Selectivity indices relative to MCF10A, Ratio + anion:no anion” value [1] was 0.410 and the IC50 [2, 8] was 1140 nM. For the same compound, the IC50 ([2]; read-out: Mean IC50 values) was 1140 nM, the “Selectivity index (ARPE19)” value [2] was 202.86 and the “Selectivity index (MCF10A)” value [2] was 46.13. The “Relative potency … Ratio + anion:no anion” value [2] was 3.55, the “Selectivity indices relative to ARPE-19, Ratio + anion:no anion” value [2] was 0.413 and the “Selectivity indices relative to MCF10A, Ratio + anion:no anion” value [2] was 0.091. The IC50 [3, 10] was 276 nM, the IC50 [3, 11] was 276 nM and the IC50 [3, 12] was 263 nM and 517 nM and 187 nM and 138 nM. The “Selectivity index (ARPE19)” value [3] was 834.24, the “Selectivity index (MCF10A)” value [3] was 189.68 and the “Relative potency … Ratio + anion:no anion” value [3] was 0.77. For the same compound, the “Selectivity indices relative to ARPE-19, Ratio + anion:no anion” value ([3]; H460) was 1.910, the IC50 [4, 13] was 230 µM and the IC50 [4, 14] was 273 µM and 210 µM and 208 µM. The IC50 [4, 15] was 230 µM, the “Relative potency … Ratio + anion:no anion” value [4] was 1.46 and the IC50 [5, 16] was 52.4 µM. The IC50 [5, 17] was 52.4 µM, the IC50 [5, 18] was 37.9 µM and 56.1 µM and 63.1 µM and the “Relative potency … Ratio + anion:no anion” value [5] was 0.32. The “Selectivity index (ARPE19)” value [6] was 1338.66, the “Selectivity index (MCF10A)” value [6] was 304.38 and the IC50 [6, 8] was 0.172 µM. The IC50 ([6]; read-out: Mean IC50 values) was 0.172 µM, the IC50 [6, 9] was 0.09 µM and 0.171 µM and 0.256 µM and the “activity relative to [L2Zn3(PO4)]3+ or [L2Zn3]6+” value ([6]; PSN1 cell line, anion pre-encapsulated) was “significantly more active”. The “Relative potency … Ratio + anion:no anion” value [6] was 0.04, the “Selectivity indices relative to ARPE-19, Ratio + anion:no anion” value [6] was 37.826 and the “Selectivity indices relative to MCF10A, Ratio + anion:no anion” value [6] was 8.367. The IC50 [7, 19] was 379 nM, the IC50 [7, 20] was 379 nM and the IC50 [7, 21] was 733 nM and 271 nM and 247 nM and 265 nM. For the same compound, the “Selectivity index (ARPE19)” value [7] was 607.52, the “Selectivity index (MCF10A)” value [7] was 138.13 and the “Relative potency … Ratio + anion:no anion” value [7] was 2.24. For the same compound, the “Selectivity indices relative to ARPE-19, Ratio + anion:no anion” value ([7]; HT29) was 0.653 and the “Selectivity indices relative to MCF10A, Ratio + anion:no anion” value ([7]; HT29) was 0.144.

From paper PMC8222254, “Self-assembly of an anion receptor with metal-dependent kinase inhibition and potent in vitro anti-cancer properties” (Nature Communications, 2021)
